Values quoted from earlier work in patent US20250339398A1, “TREATMENT OF SLEEP DISTRUBANCES IN AUTISM SPECTRUM DISORDER PATIENTS” (Vanda Pharmaceuticals Inc., priority 2021, published 2025).

Assays:
[1] = previous clinical studies in healthy volunteers, primary insomnia, Non-24, pediatric SMS
MT2 receptor = target: T1, MT2 receptor (Homo sapiens, UniProt P49286); details: MT2 receptor versus MT1 receptor
T1 sequence (P49286 1-362): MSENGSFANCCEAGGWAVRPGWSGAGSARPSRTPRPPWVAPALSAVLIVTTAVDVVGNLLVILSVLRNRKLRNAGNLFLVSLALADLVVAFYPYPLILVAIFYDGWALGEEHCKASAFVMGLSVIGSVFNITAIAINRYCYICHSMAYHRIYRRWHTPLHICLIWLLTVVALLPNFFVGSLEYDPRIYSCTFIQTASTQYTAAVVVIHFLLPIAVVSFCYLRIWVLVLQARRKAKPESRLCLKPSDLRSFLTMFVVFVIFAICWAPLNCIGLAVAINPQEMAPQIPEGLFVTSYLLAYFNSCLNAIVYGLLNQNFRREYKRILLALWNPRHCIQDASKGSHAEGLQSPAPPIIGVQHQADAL

For `CCC(=O)NC[C@@H]1C[C@H]1c1cccc2c1CCO2` [Tasimelteon, tasimelteon], the safety and tolerability [1] is listed as “safe and well-tolerated”, the linearity of pharmacokinetics (doses ranging from 3 mg to 300 mg) is listed as “linear” and the absolute bioavailability (in vivo) is listed as 38%. For the same molecule, the “affinity for the MT2 receptor relative to the MT1 receptor” value (MT2 receptor) was “greater affinity for the MT2 receptor than the MT1 receptor”.
